Values after ≈ are worked out from the molar mass of the structure shown.
Columns and labels:
[1] = Agonist activity at MRGPRX4 83L (unknown origin) expressed in HEK293 cells co-expressing Galpha15 assessed as change in intracellular calcium level by FLIPR assay; type: cell-based; settings: Homo sapiens
[2] = Agonist activity at MRGPRX4 83S in human LN229 glioblastoma cells assessed as change in intracellular calcium level by calcium mobilization assay; type: cell-based
[3] = Agonist activity at MRGPRX4 83S (unknown origin) expressed in CHO-K1 cells assessed as induction of beta-arrestin recruitment measured after 90 mins by luminescence assay; type: cell-based; settings: Homo sapiens, CHO-K1, 1.5 h
[4] = Agonist activity at MRGPRX4 83L (unknown origin) expressed in human 1321N1 glioblastoma cells assessed as change in intracellular calcium level by calcium mobilization assay; type: cell-based
[5] = Agonist activity at MRGPRX4 83L (unknown origin) expressed in CHO cells assessed as induction of beta-arrestin recruitment measured after 90 mins by luminescence assay; type: cell-based; settings: Homo sapiens, 1.5 h
[6] = Agonist activity at MRGPRX4 83L (unknown origin) expressed in HEK293 cells co-expressing Gq assessed as change in intracellular calcium level by FLIPR assay; type: cell-based; settings: Homo sapiens
[7] = Agonist activity at MRGPRX4 83S in human LN229 glioblastoma cells assessed as change in intracellular calcium level at 10 uM by calcium mobilization assay relative to control
[8] = Agonist activity at MRGPRX4 83L (unknown origin) expressed in human 1321N1 glioblastoma cells assessed as change in intracellular calcium level 10 uM by calcium mobilization assay relative to control
[9] = target: Mas-related G-protein coupled receptor member X1 (Homo sapiens, UniProt Q96LB2); assay: Agonist activity at MRGPRX1 (unknown origin) by beta-arrestin recruitment assay
Chain of Mas-related G-protein coupled receptor member X1 (Q96LB2 whole entry): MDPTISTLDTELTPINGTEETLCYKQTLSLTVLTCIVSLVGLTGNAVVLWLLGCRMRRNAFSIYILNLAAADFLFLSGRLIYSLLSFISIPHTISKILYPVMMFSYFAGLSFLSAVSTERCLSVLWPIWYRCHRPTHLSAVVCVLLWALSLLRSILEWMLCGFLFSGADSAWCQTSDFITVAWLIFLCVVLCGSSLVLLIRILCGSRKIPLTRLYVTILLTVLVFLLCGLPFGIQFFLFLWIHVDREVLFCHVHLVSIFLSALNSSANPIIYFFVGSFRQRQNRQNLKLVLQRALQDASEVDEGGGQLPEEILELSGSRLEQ

[10] = target: Mas-related G-protein coupled receptor member X3 (Homo sapiens, UniProt Q96LB0); assay: Agonist activity at MRGPRX3 (unknown origin) by beta-arrestin recruitment assay; type: functional
Chain of Mas-related G-protein coupled receptor member X3 (Q96LB0 whole entry): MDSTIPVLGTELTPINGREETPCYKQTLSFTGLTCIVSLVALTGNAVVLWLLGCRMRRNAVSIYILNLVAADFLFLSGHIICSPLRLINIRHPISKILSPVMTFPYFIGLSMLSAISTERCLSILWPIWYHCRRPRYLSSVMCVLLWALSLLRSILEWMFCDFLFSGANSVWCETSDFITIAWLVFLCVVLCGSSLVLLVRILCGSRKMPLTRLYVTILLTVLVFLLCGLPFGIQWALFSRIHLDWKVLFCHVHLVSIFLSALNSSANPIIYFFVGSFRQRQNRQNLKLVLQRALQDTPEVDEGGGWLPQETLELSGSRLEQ

[11] = target: G-protein coupled receptor 143 (Homo sapiens, UniProt P51810); assay: Agonist activity at GPR143 (unknown origin) by beta-arrestin recruitment assay
Chain of G-protein coupled receptor 143 (P51810 whole entry): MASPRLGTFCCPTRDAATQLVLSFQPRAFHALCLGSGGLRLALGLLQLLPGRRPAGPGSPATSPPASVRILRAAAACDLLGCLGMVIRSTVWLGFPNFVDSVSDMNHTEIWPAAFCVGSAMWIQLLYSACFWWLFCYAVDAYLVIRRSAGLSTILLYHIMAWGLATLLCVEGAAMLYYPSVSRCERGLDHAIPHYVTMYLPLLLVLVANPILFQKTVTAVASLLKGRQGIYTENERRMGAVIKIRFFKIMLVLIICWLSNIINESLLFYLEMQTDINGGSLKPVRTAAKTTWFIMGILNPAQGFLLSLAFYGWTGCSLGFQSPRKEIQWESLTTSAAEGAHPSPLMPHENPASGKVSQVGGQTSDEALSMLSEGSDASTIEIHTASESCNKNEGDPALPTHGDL

LN-229 = assay: Cytotoxicity against human LN-229 glioblastoma cells assessed as cell viability upto 30 uM measured after 3 days by MTT assay; type: toxicity, cell-based; settings: ln-229, 72 h, time 3 day
[12] = Kinetic solubility of compound in PBS at pH 7.4 incubated for 3 days; type: physicochemical; settings: time 3 day, read-out: Kinetic_solubility
[13] = Metabolic stability of the compound in human liver microsomes assessed as half life at 1 uM in presence of NADPH by LC-MS analysis; type: ADME, Microsome
[14] = Agonist activity at MRGPRX4 83S (unknown origin) expressed in HEK293 cells co-expressing Gq assessed as change in intracellular calcium level by FLIPR assay; type: cell-based; settings: Homo sapiens

Row | Structure (SMILES) | EC50 [2] | EC50 [3] | EC50 [4] | EC50 [5] | also measured
1 | C[C@H](CCC(=O)O)[C@H]1CC[C@H]2[C@@H]3[C@@H](O)C[C@@H]4C[C@H](O)CC[C@]4(C)[C@H]3CC[C@]12C [URSODIOL] | 47.5 µM | 3.27 µM | 41.1 µM | 33.8 µM | EC50 [1]: 4.93 µM
2 | C[C@H](CCC(=O)NCCS(=O)(=O)O)[C@H]1CC[C@H]2[C@@H]3CC[C@@H]4C[C@H](O)CC[C@]4(C)[C@H]3C[C@H](O)[C@]12C [TAURODEOXYCHOLIC ACID] | > 10 µM | 54.5 µM | > 10 µM | 55.7 µM | EC50 [6]: 14.1 µM; Activity [7]: 6%; Activity [8]: 1%
3 | C#CCn1c(=O)c2[nH]c(COc3ccccc3)nc2n(CCCCP(=O)(O)O)c1=O | > 10 µM | 1.85 µM | > 10 µM | > 10 µM | 
4 | O=C(O)[C@@H](Cc1ccccc1)NC(=O)C12CC3CC(CC(C3)C1)C2 | > 10 µM | 64.1 µM | 0.126 µM | 6.7 µM | EC50 [6]: 0.581 µM; Activity [7]: 1%
5 | C#CCn1c(=O)c2c(nc(-c3cccc(OC)c3)n2C)n(CCCOP(=O)(O)O)c1=O | > 10 µM | > 10 µM | > 10 µM | > 10 µM | 
6 | C#CCn1c(=O)c2c(nc(/C=C/c3cccc(OC)c3)n2C)n(CCCOP(=O)(O)O)c1=O |  |  |  |  | EC50 [9]: > 10 µM; EC50 [10]: > 10 µM; EC50 [11]: > 10 µM
7 | C#CCn1c(=O)c2[nH]c(CCc3cccc(OC)c3)nc2n(CCCCP(=O)(OCC)OCC)c1=O | > 10 µM | > 10 µM | > 10 µM | > 10 µM | 
8 | C#CCn1c(=O)c2[nH]c(CCc3cccc(OC)c3)nc2n(CCCO)c1=O | > 10 µM | > 10 µM | > 10 µM | > 10 µM | 
9 | C#CCn1c(=O)c2[nH]c(C(C)Cc3ccccc3)nc2n(CCCCP(=O)(O)O)c1=O (configuration not stated) | 0.0345 µM | 0.0277 µM | 6.17 µM | 3.94 µM | 
10 | C#CCn1c(=O)c2[nH]c(/C=C/c3cccc(OC)c3)nc2n(CCCCP(=O)(O)O)c1=O | 0.0116 µM | 0.2 µM | > 10 µM | > 10 µM | 
11 | C#CCn1c(=O)c2[nH]c(CCc3cccc(OC)c3)nc2n(CCCCS(=O)(=O)O)c1=O | > 10 µM | > 10 µM | > 10 µM | > 10 µM | 
12 | C#CCn1c(=O)c2c(nc(/C=C/c3cccc(OC)c3)n2C)n(CCCO)c1=O | > 10 µM |  |  |  | 
13 | C#CCn1c(=O)c2[nH]c(CCc3cccc(OC)c3)nc2n(CCCCP(=O)(O)O)c1=O | 0.0112 µM | 0.032 µM | 0.435 µM | 5.71 µM | Activity (LN-229): Non-Toxic; solubility kinetic at 72 h [12]: 218 µM (≈ 100 µg/mL); half-life at 1 µM [13]: > 4.5 h
14 | C#CCn1c(=O)c2[nH]c([C@@H]3C[C@H]3c3ccccc3)nc2n(CCCCP(=O)(O)O)c1=O | > 10 µM | > 10 µM | > 10 µM | > 10 µM | 
15 | C#CCn1c(=O)c2[nH]c(CCc3ccccc3)nc2n(CCCCP(=O)(O)O)c1=O | 0.134 µM | 0.399 µM | 3.25 µM | > 10 µM | 
16 | C#CCn1c(=O)c2c(nc(CCc3cccc(OC)c3)n2C)n(CCCCP(=O)(O)O)c1=O | 0.0192 µM | 0.03 µM | 0.333 µM | 6.28 µM | Activity (LN-229): Non-Toxic; half-life at 1 µM [13]: > 16 h
17 | COc1cccc(CCc2nc3c([nH]2)c(=O)n(CC2CCC2)c(=O)n3CCCCP(=O)(O)O)c1 | 0.0599 µM | 0.0689 µM | 1.6 µM | > 10 µM | 
18 | C#CCn1c(=O)c2[nH]c(CCc3cccc(OC)c3)nc2n(CCCCC(=O)O)c1=O | > 10 µM | 6.72 µM | > 10 µM | > 10 µM | 
19 | C#CCn1c(=O)c2[nH]c(C(C)Cc3ccccc3)nc2n(CCCCP(=O)(O)OCC)c1=O (configuration not stated) | > 10 µM | > 10 µM | > 10 µM | > 10 µM | 
20 | CC(C)[C@H]1CC[C@H](C(=O)N[C@H](Cc2ccccc2)C(=O)O)CC1 [NATEGLINIDE] | > 10 µM | 28.4 µM | 0.198 µM | 4.09 µM | EC50 [6]: 4.72 µM; EC50 [14]: > 10 µM; Activity [7]: 0%
21 | C#CCn1c(=O)c2[nH]c(CCc3cccc(OC)c3)nc2n(CCCOC(C)=O)c1=O | > 10 µM | > 10 µM | > 10 µM | > 10 µM | 
22 | C[C@]12C[C@@H]3C[C@](C)(C1)C[C@@](C(=O)N[C@H](Cc1ccccc1)C(=O)O)(C3)C2 | 13.3 µM | 3.98 µM | 0.00656 µM | 0.548 µM | EC50 [6]: 0.149 µM; EC50 [14]: > 10 µM
23 | C[C@H](CCC(=O)O)[C@H]1CC[C@H]2[C@@H]3CC[C@@H]4C[C@H](O)CC[C@]4(C)[C@H]3C[C@H](O)[C@]12C [DEOXYCHOLIC ACID] | 169 µM | 1.68 µM | 11.2 µM | 24.6 µM | EC50 [1]: 2.6 µM
24 | C#CCn1c(=O)c2c(nc(C#Cc3cccc(OC)c3)n2C)n(CCCOP(=O)(O)O)c1=O | > 10 µM | > 10 µM | > 10 µM | > 10 µM | 
25 | CCn1c(=O)c2[nH]c(CCc3cccc(OC)c3)nc2n(CCCCP(=O)(O)O)c1=O | 0.214 µM | 1.19 µM | 3.8 µM | > 10 µM | 
26 | C#CCn1c(=O)c2c(nc(CCc3cccc(OC)c3)n2C)n(CCCOP(=O)(O)O)c1=O | 0.238 µM | 0.374 µM | 0.574 µM | > 10 µM | 

— ChEMBL document CHEMBL5375944, “Discovery of Potent Agonists for the Predominant Variant of the Orphan MAS-Related G Protein-Coupled Receptor X4 (MRGPRX4)” (J Med Chem, 2023)
